Patent US20230414605A1, “Method of Treating Cancer Using FABP5 Inhibitors” (Aurigene Oncology Limited, priority 2020, published 2023)

What was measured:
Assay type in all cases: cell-based
H929 = assay: Anti proliferative activity in haematological cancer cell lines (CellTiter Glo), H929
Experimental: (§1) After 24 hours, selected compound of the present invention was added to cells from 10 mM stocks made in DMSO (Sigma Cat no. D2650). CTG reading was taken on the day of compound addition which was labelled as Day 0 reading. Each concentration of compound was tested in triplicate with DMSO concentration not exceeding a final percentage of 0.1 in the cells. After 3 days (72 hours) of incubation assay terminated using 100 μl of CellTiter Glo® reagent (Promega, Cat. no G7572). CellTiter Glo® Luminescent reagent determines the number of viable cells based on quantitation of ATP present which is an indicator of cell number and metabolically activity. Luminescence readings were taken in Victor-3 instrument. The data was analysed using graph pad prism software. Positive control (100% survival)=Cells in complete media with […]; Negative control/blank (0% survival)=Media alone containing 0.1% DMSO.

DOHH-2 = assay: Anti proliferative activity in haematological cancer cell lines (CellTiter Glo), DOHH-2; details: Homo sapiens, DOHH-2, Follicular lymphoma, 72 hours incubation
Experimental: as §1

Pfeiffer = assay: Anti proliferative activity in haematological cancer cell lines (CellTiter Glo), Pfeiffer; details: Homo sapiens, GCB-DLBCL, 72 hours incubation
Experimental: as §1

CCRF-CEM = assay: Anti proliferative activity in haematological cancer cell lines (CellTiter Glo), CCRF-CEM
Experimental: as §1

OCI-LY10 = assay: Anti proliferative activity in haematological cancer cell lines (CellTiter Glo), OCI-LY10; details: Homo sapiens, OCI-LY10, ABC-DLBCL, 72 hours incubation
Experimental: as §1

TMD8* (wt btk) = assay: Anti proliferative activity in haematological cancer cell lines (CellTiter Glo), TMD8; details: Homo sapiens, ABC-DLBCL, 72 hours incubation
Experimental: as §1

OCI-LY3 cells = assay: Anti proliferative activity in haematological cancer cell lines (CellTiter Glo), OCI-LY3
Experimental: as §1

HBL-1 = assay: Anti proliferative activity in haematological cancer cell lines (CellTiter Glo), HBL-1; details: HBL1, HBL-1, ABC-DLBCL, 72 hours incubation
Experimental: as §1

CUTLL-1 = assay: Anti proliferative activity in haematological cancer cell lines (CellTiter Glo), CUTLL-1
Experimental: as §1

C=CC(=O)N1CCN(C(=O)NC2(C#Cc3ccc(Cl)c(Cl)c3)CC2)CC1 [Cpd 23] was tested, and the “anti-proliferative activity (in words)” value (H929; H929 (multiple myeloma)) was “potent anti-proliferative activity”, the IC50 (H929; Homo sapiens, NCI-H929, H929, Multiple myeloma, 72 hours incubation, CellTiter Glo) was 50 nM and the IC50 (DOHH-2) was 20 nM. The IC50 (Pfeiffer) was 870 nM, the “anti-proliferative activity (in words)” value (CCRF-CEM; CCRF-CEM (T-cell acute lymphoblastic leukemia)) was “potent anti-proliferative activity” and the IC50 (CCRF-CEM; Homo sapiens, CCRF-CEM, T-cell acute lymphoblastic leukemia, 72 hours incubation, CellTiter Glo) was 280 nM. For the same molecule, the IC50 (OCI-LY10) was 10 nM, the IC50 (TMD8* (wt btk)) was 10 nM and the IC50 (OCI-LY3 cells; Homo sapiens, OCI-LY3, ABC-DLBCL, 72 hours incubation, CellTiter Glo) was 20 nM. The “anti-proliferative activity (in words)” value (OCI-LY3 cells; OCI-LY3 (ABC-DLBCL), activating mutation in CARD11) was “potent anti-proliferative activity”, the IC50 (HBL-1) was 350 nM and the IC50 (CUTLL-1; CUTLL1, CUTLL-1, T-cell acute lymphoblastic leukemia, 72 hours incubation, CellTiter Glo) was 50 nM. The “anti-proliferative activity (in words)” value (CUTLL-1; CUTLL-1 (T-cell acute lymphoblastic leukemia)) was “potent anti-proliferative activity”.
